{
  "source": "ChEMBL document CHEMBL4219085",
  "about": "“Discovery of isatin and 1H-indazol-3-ol derivatives as d-amino acid oxidase (DAAO) inhibitors” (Bioorg Med Chem, 2018)",
  "key": {"[1]": {"biological_target": "T1, D-amino-acid oxidase (Homo sapiens, UniProt P14920)", "test": "Inhibition of human DAAO using D-KYN as substrate preincubated for 20 mins followed by substrate addition measured after 30 mins by FP-6300-based fluorescence spectrometry"}, "[2]": {"biological_target": "D-amino-acid oxidase (Sus scrofa, UniProt P00371)", "sequence (P00371 whole entry)": "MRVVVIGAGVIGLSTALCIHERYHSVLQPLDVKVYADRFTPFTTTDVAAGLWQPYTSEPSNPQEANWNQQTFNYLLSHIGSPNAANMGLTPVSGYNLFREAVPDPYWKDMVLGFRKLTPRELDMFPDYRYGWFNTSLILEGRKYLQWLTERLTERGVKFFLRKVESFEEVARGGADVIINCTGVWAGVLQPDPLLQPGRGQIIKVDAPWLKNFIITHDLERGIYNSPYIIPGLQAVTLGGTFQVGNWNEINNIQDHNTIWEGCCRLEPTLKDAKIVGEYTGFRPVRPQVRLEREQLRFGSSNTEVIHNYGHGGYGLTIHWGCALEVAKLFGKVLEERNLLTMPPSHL", "test": "Binding affinity to pig kidney DAAO by ITC method"}, "[3]": {"biological_target": "T1, D-amino-acid oxidase", "test": "Inhibition of human DAAO at 20 uM using D-KYN as substrate preincubated for 20 mins followed by substrate addition measured after 30 mins by FP-6300-based fluorescence spectrometry"}, "[4]": {"test": "Dissociation constant, pKa of the compound by UV-spectrophotometric titration method", "type": "physicochemical"}, "[5]": {"biological_target": "T1, D-amino-acid oxidase", "test": "Inhibition of DAAO (unknown origin)"}, "[6]": {"test": "Effective permeability of the compound after 4 hrs at pH 5.5 to 7.4 by PAMPA", "type": "ADME", "details": "read-out: Peff"}, "[7]": {"test": "Effective permeability of the compound assessed as membrane retention after 4 hrs at pH 5.5 to 7.4 by PAMPA", "type": "ADME", "details": "pH 5.5, 4 h"}, "[8]": {"test": "Effective permeability of the compound after 4 hrs at pH 6.5 to 7.4 by PAMPA", "type": "ADME", "details": "read-out: Peff"}, "[9]": {"test": "Effective permeability of the compound assessed as membrane retention after 4 hrs at pH 6.5 to 7.4 by PAMPA", "type": "ADME", "details": "pH 6.5, 4 h"}, "[10]": {"test": "Effective permeability of the compound after 4 hrs at pH 7.4 by PAMPA", "type": "ADME", "details": "read-out: Peff"}, "[11]": {"test": "Effective permeability of the compound assessed as membrane retention after 4 hrs at pH 7.4 by PAMPA", "type": "ADME", "details": "pH 7.4, 4 h"}, "[12]": {"test": "Elimination half life in NMRI mouse hepatic microsomes at 1 uM up to 90 mins by LC-MS/MS analysis", "type": "ADME, microsome", "details": "liver microsomes, read-out: beta t1/2"}, "[13]": {"test": "Intrinsic clearance in NMRI mouse hepatic microsomes at 1 uM up to 90 mins by LC-MS/MS analysis", "type": "ADME, microsome", "details": "liver microsomes, read-out: CLH"}, "[14]": {"test": "Elimination half life in NMRI mouse primary hepatocytes at 1 uM up to 240 mins by LC-MS/MS analysis", "type": "ADME, cell-based, Hepatocyte", "details": "read-out: beta t1/2"}, "[15]": {"test": "Intrinsic clearance in NMRI mouse primary hepatocytes at 1 uM up to 240 mins by LC-MS/MS analysis", "type": "ADME, cell-based, Hepatocyte", "details": "read-out: CLH"}, "[16]": {"test": "Elimination half life in human hepatic microsomes at 1 uM up to 90 mins by LC-MS/MS analysis", "type": "ADME, microsome", "details": "liver microsomes, read-out: beta t1/2"}, "[17]": {"test": "Intrinsic clearance in human hepatic microsomes at 1 uM up to 90 mins by LC-MS/MS analysis", "type": "ADME, microsome", "details": "liver microsomes, read-out: CLH"}, "[18]": {"test": "Elimination half life in human primary hepatocytes at 1 uM up to 240 mins by LC-MS/MS analysis", "type": "ADME, cell-based, Hepatocyte", "details": "read-out: beta t1/2"}, "[19]": {"test": "Intrinsic clearance in human primary hepatocytes at 1 uM up to 240 mins by LC-MS/MS analysis", "type": "ADME, cell-based, Hepatocyte", "details": "read-out: CLH"}, "[20]": {"system": "Mus musculus", "test": "Anti-schizophrenic activity in NMRI mouse assessed as increase in D-serine levels in blood at 30 mg/kg, ip measured after 10 mins by capillary electrophoresis laser induced fluorescence method", "type": "functional"}, "[21]": {"system": "Mus musculus", "test": "Anti-schizophrenic activity in NMRI mouse assessed as increase in D-serine levels in blood at 30 mg/kg, ip measured after 60 mins by capillary electrophoresis laser induced fluorescence method", "type": "functional"}, "[22]": {"test": "Drug level in blood of NMRI mouse assessed at 30 mg/kg, ip co-dosed with 30 mg/kg, ip D-serine measured after 10 mins", "type": "ADME, organism-based", "details": "read-out: Drug uptake"}, "[23]": {"test": "Drug level in blood of NMRI mouse assessed at 30 mg/kg, ip co-dosed with 30 mg/kg, ip D-serine measured after 60 mins", "type": "ADME, organism-based", "details": "read-out: Drug uptake"}},
  "data": [
    {"smiles": "Cc1cccc2c1NC(=O)C2=O", "values": [
      {"measurement": "IC50", "setting": "[1]", "value": 13100, "unit": "nM"},
      {"measurement": "Kd", "setting": "[2]", "value": 8230, "unit": "nM"}
    ]},
    {"smiles": "Oc1n[nH]c2cccc(Br)c12", "values": [
      {"measurement": "inhibition", "setting": "[3]", "value": 34, "unit": "%"},
      {"measurement": "pKa", "setting": "[4]", "value": 7.51}
    ]},
    {"smiles": "Oc1n[nH]c2cccc(Cl)c12", "values": [
      {"measurement": "inhibition", "setting": "[3]", "value": 19, "unit": "%"},
      {"measurement": "pKa", "setting": "[4]", "value": 7.51}
    ]},
    {"smiles": "O=C1Nc2c(Cl)cccc2C1=O", "values": [
      {"measurement": "IC50", "setting": "[5]", "value": 7870, "unit": "nM"},
      {"measurement": "pKa", "setting": "[4]", "value": 9.44}
    ]},
    {"smiles": "Oc1n[nH]c2ccc(F)cc12", "values": [
      {"measurement": "Kd", "setting": "[2]", "value": 1200, "unit": "nM"}
    ]},
    {"smiles": "Oc1n[nH]c2ccc(Cl)cc12", "values": [
      {"measurement": "pKa", "setting": "[4]", "value": 7.53},
      {"measurement": "Kd", "setting": "[2]", "value": 780, "unit": "nM"}
    ]},
    {"smiles": "Oc1n[nH]c2cc(F)ccc12", "values": [
      {"measurement": "IC50", "setting": "[1]", "value": "120 to 123", "unit": "nM"},
      {"measurement": "pKa", "setting": "[4]", "value": 7.84},
      {"measurement": "Kd", "setting": "[2]", "value": 1000, "unit": "nM"},
      {"measurement": "Papp at 4 h", "setting": "[6]", "value": 1.2, "unit": "×10⁻⁶ cm/s"},
      {"measurement": "R%", "setting": "[7]", "value": 3.9, "unit": "%"},
      {"measurement": "Papp at 4 h", "setting": "[8]", "value": 0.97, "unit": "×10⁻⁶ cm/s"},
      {"measurement": "R%", "setting": "[9]", "value": 7.1, "unit": "%"},
      {"measurement": "Papp at 4 h", "setting": "[10]", "value": 0.72, "unit": "×10⁻⁶ cm/s"},
      {"measurement": "R%", "setting": "[11]", "value": 5.8, "unit": "%"},
      {"measurement": "half-life at […], 1 µM", "setting": "[12]", "value": 1.33, "unit": "h"},
      {"measurement": "CLint scaled at […], 1 µM", "setting": "[13]", "value": 8.29, "unit": "mL/min/kg"},
      {"measurement": "half-life at 1 µM", "setting": "[14]", "value": 2.97, "unit": "h"},
      {"measurement": "CLint scaled at 1 µM", "setting": "[15]", "value": 20, "unit": "mL/min/kg"},
      {"measurement": "half-life at […], 1 µM", "setting": "[16]", "value": 3.04, "unit": "h"},
      {"measurement": "CLint scaled at […], 1 µM", "setting": "[17]", "value": 0.9, "unit": "mL/min/kg"},
      {"measurement": "half-life at 1 µM", "setting": "[18]", "value": 6.86, "unit": "h"},
      {"measurement": "CLint scaled at 1 µM", "setting": "[19]", "value": 2.78, "unit": "mL/min/kg"},
      {"measurement": "Activity", "setting": "[20]", "value": 33, "unit": "%"},
      {"measurement": "Activity", "setting": "[21]", "value": 27, "unit": "%"},
      {"measurement": "concentration at 10 min", "setting": "[22]", "value": 13.1, "unit": "µM"},
      {"measurement": "concentration at 1 h", "setting": "[23]", "value": 0.77, "unit": "µM"}
    ]},
    {"smiles": "Oc1noc2ccccc12", "values": [
      {"measurement": "IC50", "setting": "[1]", "value": 418, "unit": "nM"},
      {"measurement": "Kd", "setting": "[2]", "value": 440, "unit": "nM"}
    ]},
    {"smiles": "O=[N+]([O-])c1ccc2c(O)[nH]nc2c1", "values": [
      {"measurement": "IC50", "setting": "[1]", "value": 1200, "unit": "nM"},
      {"measurement": "pKa", "setting": "[4]", "value": 6.52},
      {"measurement": "Kd", "setting": "[2]", "value": 4590, "unit": "nM"}
    ]},
    {"smiles": "Oc1noc2cc(Cl)ccc12", "values": [
      {"measurement": "Kd", "setting": "[2]", "value": 870, "unit": "nM"}
    ]},
    {"smiles": "O=c1[nH][nH]c2ccccc12", "values": [
      {"measurement": "pKa", "setting": "[4]", "value": 8.16},
      {"measurement": "Kd", "setting": "[2]", "value": 4430, "unit": "nM"}
    ]},
    {"smiles": "O=c1[nH][nH]c2ccc(Br)cc12", "values": [
      {"measurement": "Kd", "setting": "[2]", "value": 3290, "unit": "nM"}
    ]},
    {"smiles": "Oc1cc(CCc2ccccc2)[nH]n1", "values": [
      {"measurement": "inhibition", "setting": "[3]", "value": 66, "unit": "%"}
    ]},
    {"smiles": "Oc1n[nH]c2c(Cl)cccc12", "values": [
      {"measurement": "IC50", "setting": "[1]", "value": 10100, "unit": "nM"},
      {"measurement": "pKa", "setting": "[4]", "value": 7.28},
      {"measurement": "Kd", "setting": "[2]", "value": 3310, "unit": "nM"}
    ]},
    {"smiles": "Oc1n[nH]c2cc(Cl)ccc12", "values": [
      {"measurement": "IC50", "setting": "[1]", "value": "150 to 156", "unit": "nM"},
      {"measurement": "pKa", "setting": "[4]", "value": 7.59},
      {"measurement": "Kd", "setting": "[2]", "value": 2000, "unit": "nM"},
      {"measurement": "Papp at 4 h", "setting": "[6]", "value": 9.53, "unit": "×10⁻⁶ cm/s"},
      {"measurement": "R%", "setting": "[7]", "value": 6.7, "unit": "%"},
      {"measurement": "Papp at 4 h", "setting": "[8]", "value": 7.43, "unit": "×10⁻⁶ cm/s"},
      {"measurement": "R%", "setting": "[9]", "value": 9.7, "unit": "%"},
      {"measurement": "Papp at 4 h", "setting": "[10]", "value": 4.47, "unit": "×10⁻⁶ cm/s"},
      {"measurement": "R%", "setting": "[11]", "value": 2.5, "unit": "%"},
      {"measurement": "half-life at […], 1 µM", "setting": "[12]", "value": 0.942, "unit": "h"},
      {"measurement": "CLint scaled at […], 1 µM", "setting": "[13]", "value": 11.7, "unit": "mL/min/kg"},
      {"measurement": "half-life at 1 µM", "setting": "[14]", "value": 0.87, "unit": "h"},
      {"measurement": "CLint scaled at 1 µM", "setting": "[15]", "value": 68.2, "unit": "mL/min/kg"},
      {"measurement": "half-life at […], 1 µM", "setting": "[16]", "value": 3.6, "unit": "h"},
      {"measurement": "CLint scaled at […], 1 µM", "setting": "[17]", "value": 0.76, "unit": "mL/min/kg"},
      {"measurement": "half-life at 1 µM", "setting": "[18]", "value": 7.51, "unit": "h"},
      {"measurement": "CLint scaled at 1 µM", "setting": "[19]", "value": 2.54, "unit": "mL/min/kg"}
    ]}
  ]
}
